{
  "source": "patent US8173570B2",
  "about": "“Hydroconversion processes employing multi-metallic catalysts and method for making thereof” (Chevron U.S.A. Inc., priority 2007, dated 2012)",
  "origin": "cited, not measured here",
  "tested_on": "rats",
  "settings": "acute toxicity, as single oral dose to rats (definition b56-b57)",
  "data": [
    {"smiles": "O=CC(=O)O", "note": "[glyoxylic]", "values": [
      {"measurement": "LD50", "result": 3000, "unit": "mg/kg"}
    ]}
  ]
}
